From article PMC12040169 (PLOS Biology, 2025)

test: in vitro; details: human, hela cells, % viability

SMILES | viability at 28.5 h, 10 µM [%]
COCCN1CCN(C(=O)NCCc2c(C)[nH]c3ccc(Cl)cc23)CC1 [CBK307637] | 85
CCC1=NN(c2ccccc2)C(=O)C(CC(=O)Nc2ccccc2)c2cc(OC)c(OC)cc21 (stereo not shown) [CBK260938] | 89
CCCNC(=O)c1ccc(C)c(S(=O)(=O)Nc2ccc(C)cc2C)c1 [CBK269084] | 88.8
Cc1cccc(NC(=O)CN2C(=O)S/C(=C\c3cc(C)n(-c4ccc(N(C)C)cc4)c3C)C2=O)c1 [CBK264586] | 96.9
FC(F)(F)c1cc(-c2cc(N3CCC(N4CCCCC4)CC3)ncn2)cc(C(F)(F)F)c1 [CBK037692] | 92.6
O=C(c1ccco1)N1CCN(c2ccc(/C=C/c3ccccc3)cn2)CC1 [CBK037701] | 98.7
N#CCCN(Cc1ccco1)C(=O)c1ccc(NC2CC2)nc1 [CBK304922] | 88.2
c1ccc2c(N3CCCCC3)cnnc2c1 [CBK066897] | 99.2
CC(NC(=O)c1ccccc1)c1nnc(SCC(=O)c2ccccc2)n1C (stereo not shown) [CBK269644] | 82.3
NC(=S)c1c(Cl)cc(C(F)(F)F)cc1Cl [CBK011349] | 105
Cc1cccc(-c2nccnc2C2CCCN(C(=O)COc3ccc(F)cc3)C2)c1 (stereo not shown) [CBK286241] | 88.1
COc1cncc(C(NC(=O)Cn2ccccc2=O)[C@H]2C[C@@H](O)C2)c1 (stereo partly shown) [CBK307557] | 92.5
CC(C)(C)NC(=O)Cn1nc(-c2cc3c(s2)CCC3)oc1=O [CBK284714] | 101
CCc1noc(C)c1C(=O)Nc1ncc(C)s1 [CBK288244] | 95.4
CCOc1ccc(-c2cn(S(=O)(=O)c3cccc4nsnc34)nc2N)cc1 [CBK267883] | 102
CC(C)(O)C#Cc1ccccc1C(=O)NC(Cc1c[nH]c2ccccc12)C(=O)O (stereo not shown) [CBK267701] | 80.4
CC(C)(C)OC(=O)N1CCC(CNS(C)(=O)=O)CC1 [CBK003925] | 78
O=C(NCc1cc(Br)ccc1F)C1CC(=O)N(Cc2ccccn2)C1 (stereo not shown) [CBK305242] | 85.7
CCn1cc(CN2CCCCCC2c2cc(C)on2)c(C)n1 (stereo not shown) [CBK282140] | 80.7
O=C(Nc1ccccc1N1CCNCC1)C1(c2ccccc2)CCCCC1 [CBK028281T] | 99.9
COc1cccc(C(=O)Nc2cnn(CCCC(=O)O)c2)c1 [CBK269879] | 89.6
O=C(NCCn1nc2c(cc1=O)CCCCC2)c1cccs1 [CBK283277] | 100

SMILES | viability at 28.5 h, 10 µM [%]
COc1cc(CNC(C)c2ccccc2)ccc1OCC(N)=O (stereo not shown) [CBK269982C] | 92.8
CC(C#CCN(C)C)N1C(=O)CCC1C (stereo not shown) [CBK008291G] | 109
FC(F)(F)C1(NC2(C(Cl)(Cl)Cl)Oc3ccccc3O2)Oc2ccccc2O1 [CBK265544] | 90.5
Cc1nc(C)c(C(=O)N2CCCC(c3cc4cccnc4[nH]3)C2)s1 (stereo not shown) [CBK284995] | 97.4
CC(NC(=O)Cc1ccccc1F)c1nc2cccnc2n1C(C)C (stereo not shown) [CBK283829] | 90.8
Cc1ncccc1COC(=O)Nc1cccnc1 [CBK138237] | 94.3
O=C(O)CC(c1ccccc1)c1ccc2c(c1)OCO2 (stereo not shown) [CBK286983] | 87.8
CCOC(=O)c1cnc(SCc2nc(N)nc(Nc3ccc(F)cc3)n2)nc1N [CBK098477] | 82.3
O=C1NCCCC12CCN(Cc1cccc3cccnc13)CC2 [CBK284826] | 92.3
C=C(Br)Cn1c(COc2cccc3ccccc23)nc2ccccc21 [CBK263373] | 97.3
COc1ccc(C(C)C)cc1-c1cncc(N(C)CCN(C)C)n1 [CBK065364] | 105
CC(C)(C)C(=O)N1CC[C@H]2NC(=O)N(c3ccc(F)cc3)C(=O)[C@H]21 [CBK289328] | 86.4
Cc1oc(NC(=O)CN2CCN(c3ccccc3)CC2)c(C#N)c1C [CBK306044] | 81.7
CCC(NC1CCc2nc(C)cn2C1)c1ccccc1O (stereo not shown) [CBK306012] | 85.8
CN1CCN(c2ccc(NC(=S)NC(=O)c3cc4ccccc4o3)cc2)CC1 [CBK266240] | 95.5
CCOC(=O)N1CCN(Cc2nc3c(c(=O)n(C)c(=O)n3C)n2Cc2ccccc2C)CC1 [CBK269325] | 91.8
COc1ccc(CCC(=O)N2CCCc3c(cnn3C)C2)cc1 [CBK285326] | 111
NC(=O)c1c(F)cccc1-c1cc(NCCO)nc2[nH]ccc12 [CBK306689] | 112
COc1ccc([C@@H]2CCN(C(=O)c3cc(F)cc(F)c3)C[C@H]2O)cc1 [CBK283757] | 97
O=C(c1cccc(F)c1)N1CCCC1c1cc2cccnc2[nH]1 (stereo not shown) [CBK285081] | 93.1
O=C(Cn1cnc(NCc2cscn2)n1)N1CCCCCC1 [CBK304061] | 98
Cc1c(Cl)ccc2c(C(=O)Nc3ccc(S(=O)(=O)N4CCOCC4)cc3)cc(-c3cccnc3)nc12 [CBK267718] | 85.5

SMILES | viability at 28.5 h, 10 µM [%]
c1coc(-c2nnc(Nc3nc4cc5c(cc4s3)OCO5)o2)c1 [CBK287492] | 89.8
Cc1oc2ccccc2c1CN(CCN(C)C)Cc1ccncc1 [CBK283097] | 87.8
c1cnc(OC2CCN(CC3CCCCC3)CC2)c(OC2CCCCC2)n1 [CBK082879T] | 101
CN1CC(CO)CCC1Cc1c[nH]c2ccccc12 (stereo not shown) [CBK011468] | 92.4
Cc1cc2c(cc1C)N(C(=O)CSc1ncn[nH]1)C(C)(C)c1ssc(=S)c1-2 [CBK263786] | 96.3
CCN(CCCNC(=O)c1cc(-c2cccnc2)nc2ccccc12)c1cccc(C)c1 [CBK294465] | 86.7
O=C(Nc1cccc(N2CCNCC2)c1)c1cnc2ccccc2c1 [CBK029415T] | 83.2
CCc1c(C)nc2ccccc2c1SCC(=O)O [CBK153279] | 83.9
COc1cc(CNn2cnnc2S)ccc1OCC(N)=O [CBK265877] | 90
COc1cc2c(cc1NC(=O)C(C)Oc1ccccc1)oc1ccccc12 (stereo not shown) [CBK264061] | 91.3
COc1cc(CNc2cc(-c3ccccc3N(C)C)ncn2)cc(OC)c1OC [CBK037123] | 93.1
N#Cc1c(O)nc(SCC(=O)Nc2ccc(Oc3ccccc3)cc2)nc1-c1ccccc1 [CBK266607] | 118
CC(C)CN1C(=O)COC[C@@H]1[C@H](O)c1ccc(NC(=O)c2cccnc2)cc1 [CBK289692] | 105
CC(C)c1ccc(/C=C/C(=O)NCc2cccs2)cc1 [CBK149587] | 100
CCOc1ccc(-c2nc(CSc3n[nH]c(=O)n3CCc3ccccc3)cs2)cc1 [CBK296735] | 94.7
Cc1ccc(NC(=O)Cn2cnc3c2c(=O)n(C)c(=O)n3C)c(C)c1 [CBK133276] | 90.6
C[C@H](Nc1nc(-c2ccc(-c3ccccc3)cc2)cnc1N)c1ccccc1 [CBK063760] | 93.5
Sc1nnc(-c2ccncc2)n1CCc1ccccc1 [CBK265819] | 108
Cc1ccc(S(=O)(=O)NC2=NCN(CCOC(=O)c3ccc([N+](=O)[O-])cc3)CN2)cc1 [CBK265235] | 92.8
O=C(CSc1nc2ccccc2c(=O)n1-c1ccc(F)cc1)Nc1ccc(C(=O)O)cc1 [CBK296140] | 96
Cc1cc(C)n(C(C)Cn2cncc2-c2cn(C)nc2C)n1 (stereo not shown) [CBK281792] | 102
Cn1ccc(C2CCCCCN2C(=O)c2cc(C3CC3)on2)n1 (stereo not shown) [CBK283050] | 104

SMILES | viability at 28.5 h, 10 µM [%]
Cc1ccc(S(=O)(=O)c2ccc(C)c(S(=O)(=O)N3CCOCC3)c2)cc1S(=O)(=O)N1CCOCC1 [CBK261677] | 94.1
O=[N+]([O-])c1ccc(O)c(/C=N/C(CO)(CO)CO)c1 [CBK261835] | 89.3
Cc1c(-c2cccc(C(=O)N(CCO)C3CCS(=O)(=O)C3)c2)cnn1C (stereo not shown) [CBK307621] | 86.5
O=C(CN1CCC(Cc2ccccc2)CC1)Nc1ccc(S(=O)(=O)N2CCOCC2)cc1 [CBK268451] | 102
CC(C)(C)c1cc(CC2(NCc3ccco3)COC2)no1 [CBK289642] | 108
Cc1c(Cc2ccccc2)c(N2CCN(C3c4ccccc4-c4ccccc43)CC2)n2c(nc3ccccc32)c1C#N [CBK263124] | 111
Cc1nn(-c2ccc(F)cc2)c(C)c1CNC(=O)CCC1CCCO1 (stereo not shown) [CBK281456] | 86.8
CCN(Cc1ccccc1)Cc1nc2ccccc2c(=O)[nH]1 [CBK283203] | 95.6
Fc1ccc(COc2ccccc2CNCCN2CCOCC2)cc1 [CBK278150C] | 91.5
O=C(O)c1ccc(S(=O)(=O)Nc2nnc(C(F)(F)F)s2)cc1 [CBK062023] | 91.5
O=C(c1cnoc1-c1ccc([N+](=O)[O-])cc1)N1CCCC1 [CBK153846] | 107
O=C1C[C@H]2[C@H](CC3(SCCS3)[C@@H]2CO)O1 [CBK006615] | 90.2
CCCc1[nH]n(CC(=O)OCC)c(=O)c1Cc1c(Cl)cccc1Cl [CBK104764] | 94.4
C[N+](C)(C)c1ccc(C(=O)O)cc1 [CBK260929B] | 90
COc1ccc(/C=N/Nc2ccc([N+](=O)[O-])cc2)c(C(=O)O)c1OC [CBK261984] | 90.5
COc1ccc2[nH]cc(CCNC(=O)N(C)C3CCN(C)C3)c2c1 (stereo not shown) [CBK156004] | 112
O=C(O)CNS(=O)(=O)c1cccc2nsnc12 [CBK261136] | 96.8
COc1cccc(CN2CCN(Cc3ccco3)[C@@H](C)C2)c1 [CBK284265] | 80.3
Cc1ccc2cc(COc3cccnc3[N+](=O)[O-])c(Cl)nc2c1C [CBK297113] | 103
CCCC12CN3CC(CCC)(CN(C1)C3c1ccc([N+](=O)[O-])cc1)C2=O (stereo not shown) [CBK264481] | 101
COc1ccc([C@@]23CC[C@@H](NC(=O)Nc4ccc(C)c(F)c4F)C[C@@H]2N(C)CC3)cc1OC [CBK073686T] | 87.3

same assay, conditions: human, hela cells, % viability, bulk resorufin, single well

SMILES | viability at 28.5 h, 10 µM [%]
CC(=O)c1c(O)n(C2CCCCC2)c(=O)[nH]c1=O [CBK287861] | 91.9
